Experimental data taken from patent US11071300B2, “Pesticidally active pyrazole derivatives” (SYNGENTA PARTICIPATIONS AG, priority 2017, dated 2021).
Where two headings read alike, the source gives them in different places.

Assays:
Type in all cases: in vivo
[1] = test system: Spodoptera littoralis; assay: Spodoptera littoralis (Egyptian cotton leaf worm) leaf disc test; details: foliar, 72 h, read-out: control (at least one of mortality, anti-feedant effect, growth inhibition); for percent control (mortality, anti-feedant effect or growth inhibition) at 200 ppm: application rate 200 ppm, cotton leaf discs sprayed, L1 larvae, 3 days after infestation
Protocol: Spodoptera littoralis (Egyptian Cotton Leaf Worm)
Cotton leaf discs were placed on agar in 24-well microtiter plates and sprayed with aqueous test solutions prepared from 10′000 ppm DMSO stock solutions. After drying the leaf discs were infested with five L1 larvae. The samples were assessed for mortality, anti-feedant effect, and growth inhibition in comparison to untreated samples 3 days after infestation. Control of Spodoptera littoralis by a test sample is when at least one of mortality, anti-feedant effect, and growth inhibition is higher than the untreated sample.

[2] = test system: Plutella xylostella; assay: Plutella xylostella (diamond back moth) artificial diet test; details: 120 h, read-out: control (mortality and growth inhibition)
Protocol: Plutella xylostella (Diamond Back Moth):
(§1) 24-well microtiter plates with artificial diet were treated with aqueous test solutions prepared from 10′000 ppm DMSO stock solutions by pipetting. After drying, the plates were infested with L2 larvae (10 to 15 per well). The samples were assessed for mortality and growth inhibition in comparison to untreated samples 5 days after infestation.

[3] = test system: Thrips tabaci; assay: Thrips tabaci (onion thrips) leaf disc test; details: foliar, 144 h, read-out: control (mortality)
Protocol: Thrips tabaci (Onion Thrips):
(§2) Sunflower leaf discs were placed on agar in 24-well microtiter plates and sprayed with aqueous test solutions prepared from 10′000 ppm DMSO stock solutions. After drying the leaf discs were infested with a thrips population of mixed ages. The samples were assessed for mortality 6 days after infestation.

[4] = test system: Diabrotica Balteata; assay: Diabrotica balteata (corn root worm) maize sprout test; details: 96 h, read-out: control (mortality and growth inhibition)
Protocol: Diabrotica Balteata, (Corn Root Worm)
as §1, with “Maize sprouts, placed on an agar layer in 24-well” for “24-well”, “plates” for “plates with artificial diet”, “spraying.” for “pipetting.”, “(6” for “(10”, “10” for “15”, “4” for “5”

[5] = test system: Tetranychus urticae; assay: Tetranychus urticae (two-spotted spider mite) leaf disc test; details: foliar, 192 h, application rate 200 ppm, bean leaf discs sprayed, 8 days after infestation, read-out: control (mortality on mixed population, mobile stages)
Protocol: Tetranychus urticae (Two-Spotted Spider Mite):
as §2, with “Bean” for “Sunflower”, “discs” for “discs were placed”, “were” for “and”, “mite” for “thrips”, “on mixed population (mobile stages) 8” for “6”

[6] = application rate 200 ppm, artificial diet, L2 larvae, 5 days after infestation
[7] = application rate 200 ppm, sunflower leaf discs sprayed, mixed ages, 6 days after infestation
[8] = application rate 200 ppm, maize sprouts sprayed, L2 larvae, 4 days after infestation

Cn1nc(OS(=O)(=O)F)c(C(F)(F)F)c1-n1cc(-c2ccc(Cl)c(C(=O)NC3CC3)c2)cn1 [Compound 4, 5-[4-[4-chloro-3-(cyclopropylcarbamoyl)phenyl]pyrazol-1-yl]-3-fluorosulfonyloxy-1-methyl-4-(trifluoromethyl)pyrazole]
≥ 80%: mortality at 200 ppm [1]

CN(C(=O)c1cc(-c2cnn(-c3c(C(F)(F)F)c(OS(=O)(=O)C(F)(F)C(F)(F)C(F)(F)C(F)(F)F)nn3C)c2)cnc1Cl)C1(C#N)CC1 [Compound 31, [5-[4-[6-chloro-5-[(1-cyanocyclopropyl)-methyl-carbamoyl]-3-pyridyl]pyrazol-1-yl]-1-methyl-4-(trifluoromethyl)pyrazol-3-yl] 1,1,2,2,3,3,4,4,4-nonafluorobutane-1-sulfonate]
≥ 80%: mortality at 200 ppm [2] | percent control (mortality, anti-feedant effect or growth inhibition) at 200 ppm [1] | mortality at 200 ppm [3] | mortality at 200 ppm [4]

CN(C(=O)c1cc(-c2cnn(-c3c(C(F)(F)F)c(OS(=O)(=O)C(F)(F)C(F)(F)F)nn3C)c2)ccc1Cl)C1(C#N)CC1 [Compound 7, [5-[4-[4-chloro-3-[(1-cyanocyclopropyl)-methyl-carbamoyl]phenyl]pyrazol-1-yl]-1-methyl-4-(trifluoromethyl)pyrazol-3-yl] 1,1,2,2,2-pentafluoroethanesulfonate]
≥ 80%: mortality at 200 ppm [2, 6] | percent control (mortality, anti-feedant effect or growth inhibition) at 200 ppm [1] | mortality at 200 ppm [3, 7] | mortality at 200 ppm [4, 8]

Cn1nc(OS(=O)(=O)C(F)(F)C(F)(F)C(F)(F)C(F)(F)F)c(C(F)(F)F)c1-n1cc(-c2cnc(Cl)c(C(=O)NC3(C#N)CC3)c2)cn1 [Compound 30, [5-[4-[6-chloro-5-[(1-cyanocyclopropyl)carbamoyl]-3-pyridyl]pyrazol-1-yl]-1-methyl-4-(trifluoromethyl)pyrazol-3-yl] 1,1,2,2,3,3,4,4,4-nonafluorobutane-1-sulfonate]
≥ 80%: mortality at 200 ppm [2] | percent control (mortality, anti-feedant effect or growth inhibition) at 200 ppm [1] | mortality at 200 ppm [4]

Cn1nc(OS(=O)(=O)C(F)(C(F)(F)F)C(F)(F)F)c(C(F)(F)F)c1-n1cc(-c2ccc(Cl)c(C(=O)N(/C(F)=C(\F)C(F)(F)F)C3(C#N)CC3)c2)cn1 [Compound 58, [5-[4-[4-chloro-3-[(1-cyanocyclopropyl)-[(E)-1,2,3,3,3-pentafluoroprop-1-enyl]carbamoyl]phenyl]pyrazol-1-yl]-1-methyl-4-(trifluoromethyl)pyrazol-3-yl] 1,1,1,2,3,3,3-heptafluoropropane-2-sulfonate]
≥ 80%: mortality at 200 ppm [2, 6] | percent control (mortality, anti-feedant effect or growth inhibition) at 200 ppm [1] | mortality at 200 ppm [5] | mortality at 200 ppm [4, 8]

CN(C(=O)c1cc(-c2cnn(-c3c(C(F)(F)F)c(OS(=O)(=O)C(F)(F)C(F)(F)Cl)nn3C)c2)ccc1Cl)C1CC1 [Compound 11, [5-[4-[4-chloro-3-[cyclopropyl(methyl)carbamoyl]phenyl]pyrazol-1-yl]-1-methyl-4-(trifluoromethyl)pyrazol-3-yl] 2-chloro-1,1,2,2-tetrafluoro-ethanesulfonate]
≥ 80%: mortality at 200 ppm [2, 6] | percent control (mortality, anti-feedant effect or growth inhibition) at 200 ppm [1] | mortality at 200 ppm [3, 7] | mortality at 200 ppm [4, 8]

CN(C(=O)c1cc(-c2cnn(-c3c(C(F)(F)F)c(OS(=O)(=O)C(F)(F)C(F)(F)F)nn3C)c2)ccc1Cl)C1CC1 [Compound 16, [5-[4-[4-chloro-3-[cyclopropyl(methyl)carbamoyl]phenyl]pyrazol-1-yl]-1-methyl-4-(trifluoromethyl)pyrazol-3-yl] 1,1,2,2,2-pentafluoroethanesulfonate]
≥ 80%: mortality at 200 ppm [2, 6] | percent control (mortality, anti-feedant effect or growth inhibition) at 200 ppm [1] | mortality at 200 ppm [4, 8]

Cn1nc(OS(=O)(=O)C(F)(F)C(F)(F)C(F)(F)C(F)(F)F)c(C(F)(F)F)c1-c1cc(-c2ccc(Cl)c(C(=O)NC3CC3)c2)on1 [Compound 39, [5-[5-[4-chloro-3-(cyclopropylcarbamoyl)phenyl]isoxazol-3-yl]-1-methyl-4-(trifluoromethyl)pyrazol-3-yl] 1,1,2,2,3,3,4,4,4-nonafluorobutane-1-sulfonate]
≥ 80%: mortality at 200 ppm [2] | mortality at 200 ppm [4]

CN(C(=O)c1cc(-c2cc(-c3c(C(F)(F)F)c(OS(=O)(=O)C(F)(F)C(F)(F)C(F)(F)C(F)(F)F)nn3C)no2)ccc1Cl)C1(C#N)CC1 [Compound 43, [5-[5-[4-chloro-3-[(1-cyanocyclopropyl)-methyl-carbamoyl]phenyl]isoxazol-3-yl]-1-methyl-4-(trifluoromethyl)pyrazol-3-yl] 1,1,2,2,3,3,4,4,4-nonafluorobutane-1-sulfonate]
≥ 80%: mortality at 200 ppm [2] | percent control (mortality, anti-feedant effect or growth inhibition) at 200 ppm [1] | mortality at 200 ppm [3] | mortality at 200 ppm [4]

CN(C(=O)c1cc(-c2cnn(-c3c(C(F)(F)F)c(OS(=O)(=O)C(F)(F)C(F)(F)C(F)(F)C(F)(F)F)nn3C)c2)ccc1Cl)C1CC1 [Compound 15, [5-[4-[4-chloro-3-[cyclopropyl(methyl)carbamoyl]phenyl]pyrazol-1-yl]-1-methyl-4-(trifluoromethyl)pyrazol-3-yl] 1,1,2,2,3,3,4,4,4-nonafluorobutane-1-sulfonate]
≥ 80%: mortality at 200 ppm [2] | percent control (mortality, anti-feedant effect or growth inhibition) at 200 ppm [1] | mortality at 200 ppm [4]

CN(C(=O)c1cc(-c2cnn(-c3c(C(F)(F)F)c(OS(=O)(=O)C(F)(F)C(F)(F)C(F)(F)C(F)(F)F)nn3C)c2)cnc1Cl)C1CC1 [Compound 28, [5-[4-[6-chloro-5-[cyclopropyl(methyl)carbamoyl]-3-pyridyl]pyrazol-1-yl]-1-methyl-4-(trifluoromethyl)pyrazol-3-yl] 1,1,2,2,3,3,4,4,4-nonafluorobutane-1-sulfonate]
≥ 80%: mortality at 200 ppm [2] | percent control (mortality, anti-feedant effect or growth inhibition) at 200 ppm [1] | mortality at 200 ppm [3] | mortality at 200 ppm [4]

CCN(C(=O)c1cc(-c2cc(-c3c(C(F)(F)F)c(OS(=O)(=O)C(F)(F)C(F)(F)C(F)(F)C(F)(F)F)nn3C)no2)ccc1Cl)C1(C#N)CC1 [Compound 44, [5-[5-[4-chloro-3-[(1-cyanocyclopropyl)-ethyl-carbamoyl]phenyl]isoxazol-3-yl]-1-methyl-4-(trifluoromethyl)pyrazol-3-yl] 1,1,2,2,3,3,4,4,4-nonafluorobutane-1-sulfonate]
≥ 80%: mortality at 200 ppm [2] | percent control (mortality, anti-feedant effect or growth inhibition) at 200 ppm [1]

Cn1nc(OS(=O)(=O)C(F)(C(F)(F)F)C(F)(F)F)c(C(F)(F)F)c1-n1cc(-c2ccc(Cl)c(C(N)=O)c2)cn1 [Compound 67, [5-[4-(3-carbamoyl-4-chloro-phenyl)pyrazol-1-yl]-1-methyl-4-(trifluoromethyl)pyrazol-3-yl] 1,1,1,2,3,3,3-heptafluoropropane-2-sulfonate]
≥ 80%: mortality at 200 ppm [2, 6] | percent control (mortality, anti-feedant effect or growth inhibition) at 200 ppm [1] | mortality at 200 ppm [5]

CCN(C(=O)c1cc(-c2cnn(-c3c(C(F)(F)F)c(OS(=O)(=O)C(F)(F)C(F)(F)C(F)(F)C(F)(F)F)nn3C)c2)ccc1Cl)C1CC1 [Compound 13, [5-[4-[4-chloro-3-[cyclopropyl(ethyl)carbamoyl]phenyl]pyrazol-1-yl]-1-methyl-4-(trifluoromethyl)pyrazol-3-yl] 1,1,2,2,3,3,4,4,4-nonafluorobutane-1-sulfonate]
≥ 80%: mortality at 200 ppm [2] | percent control (mortality, anti-feedant effect or growth inhibition) at 200 ppm [1] | mortality at 200 ppm [3] | mortality at 200 ppm [4]
